Patent publication US20260124309A1, “STAT6 DEGRADERS AND USES THEREOF” (Kymera Therapeutics, Inc., priority 2023, published 2026)

What was measured:
[1] = molecular target: T1, STAT6 (Homo sapiens, UniProt P42226); test: STAT6 MSD degradation in A549 cells; format: cell-based; settings: 24 h
T1 construct: endogenous in cells; host or cells: A549
T1 sequence (P42226 1-847): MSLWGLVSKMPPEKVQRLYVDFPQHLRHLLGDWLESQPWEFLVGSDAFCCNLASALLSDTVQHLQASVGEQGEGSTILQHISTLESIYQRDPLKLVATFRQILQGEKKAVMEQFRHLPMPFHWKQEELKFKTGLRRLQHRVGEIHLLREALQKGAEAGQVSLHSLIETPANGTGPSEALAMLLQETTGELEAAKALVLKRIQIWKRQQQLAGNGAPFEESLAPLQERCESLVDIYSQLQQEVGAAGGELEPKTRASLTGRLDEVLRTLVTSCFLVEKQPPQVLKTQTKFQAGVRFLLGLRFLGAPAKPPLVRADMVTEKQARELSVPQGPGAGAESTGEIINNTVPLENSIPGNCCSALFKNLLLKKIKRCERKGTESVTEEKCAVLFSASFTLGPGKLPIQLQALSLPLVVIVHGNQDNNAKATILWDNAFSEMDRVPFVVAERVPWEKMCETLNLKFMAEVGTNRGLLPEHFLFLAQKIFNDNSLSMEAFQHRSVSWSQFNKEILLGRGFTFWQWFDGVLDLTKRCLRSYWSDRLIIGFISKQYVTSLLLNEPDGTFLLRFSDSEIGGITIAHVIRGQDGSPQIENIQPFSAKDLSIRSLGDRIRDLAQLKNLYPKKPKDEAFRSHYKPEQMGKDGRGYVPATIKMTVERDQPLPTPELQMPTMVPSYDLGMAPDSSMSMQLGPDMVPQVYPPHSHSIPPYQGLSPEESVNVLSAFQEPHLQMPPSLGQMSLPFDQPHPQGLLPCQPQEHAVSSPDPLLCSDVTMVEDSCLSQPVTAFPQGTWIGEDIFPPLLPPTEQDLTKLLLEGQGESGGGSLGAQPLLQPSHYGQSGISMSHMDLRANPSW
Protocol: Degradation of STAT6 in cells was quantitatively measured using Meso Scale Discovery (MSD) technology. A549 cells were seeded in 96-well plates with a density of 1.5×10e4 to 5×10e5 cells per well in 100 μl fresh media. Compounds were then added to the assay plates with a final top concentration of up to 10 uM in a 1:3 dilution series with total of 9 doses. The assay plates were then incubated for 4 to 24 hours at 37° C. under 5% CO2. The assay plates were then centrifuged for 5 minutes and the cell pellets were treated with 100 μl/well RIPA lysis buffer (Boston Bioproducts, BP-115D) with protease and phosphatase inhibitors (Roche, 05892791001 and 04906837001). To prepare the MSD assay plates (MSD, L15XA), the plates were coated with the capture antibody (Abnova, H00006778) in PBS, at 40 μl/well. The plates were then incubated overnight at 4° C., washed 1 time with 150 μl/well TBST buffer (Cell Signaling Technology, #9997S) and blocked with 150 μl/well blocking buffer (MSD, R93BA-4). Cell lysates were then added to MSD assay plates and the plates were incubated at room temperature for 1 hour. The plates were then washed 3 times with 150 μl/well TBST buffer and 25 μl/well primary detection antibody (Cell Signaling Technology, #5397S). The assay plates were then incubated at room temperature for 1 hour, washed 3 times with 150 μl/well TBST buffer, and 25 μl/well secondary detection antibody, SULFO-TAG anti-rabbit antibody (MSD, R32AB-1) were added. The assay plates were then incubated at room temperature for 1 hour, washed 3 times with 150 μl/well TBST buffer, and 150 μl/well MSD reading buffer (MSD, R92TC-2) were added. The plates were then analyzed by an MSD reader. The data was analyzed by GraphPad Prism and the dose dependent STAT6 degradation was fit using the four-parameter inhibitor vs. response nonlinear regression.
The letter codes for DC50 (nM) include: A (<1 nM); B (1-10 nM); C (>10-100 nM); D (>100-1000 nM); E (>1000 nM); and F (not tested). The letter codes for Dmax (oo) include: A (>90%); B (>70-90%); C (>50-70%); D ([…]); and F (not tested).

[2] = molecular target: T2, STAT6-HiBiT (Homo sapiens, UniProt P42226); test: STAT6 HiBiT degradation in A549 (STAT6-HiBiT) cells; format: cell-based; settings: 24 h
T2 construct: Degradation of STAT6 in endogenously tagged STAT6-HiBiT A549 cells; endogenous in cells; host or cells: A549 (STAT6-HiBiT) knock-in cells
T2 sequence (P42226 1-847): T1 sequence (P42226 1-847)
Protocol: Degradation of STAT6 in endogenously tagged STAT6-HiBiT A549 cells was quantitatively measured using the Nano-Glo HiBiT Lytic Detection System (Promega, 3040). A549 (STAT6-HiBiT) cells were seeded in 384-well plates with a density of 1.25k cells per well in 20 μl fresh media. Compounds were then added to the assay plates using the Apricot S3 with a final top concentration of up to 10 uM in a 4-fold dilution series with total of 10 doses. The assay plates were then incubated for 24 hours at 37° C. under 5% CO2. At the assay endpoint, 20 μL of Nano-Glo HiBiT Lytic Reagent was added to each well and agitated on a plate shaker at 300 rpm for 10 minutes at room temperature. Luminescence was read on PHERAStar FSX Instrument (Is integration time). The data was analyzed by GraphPad Prism and the dose dependent STAT6 degradation was fit using the four-parameter inhibitor vs. response nonlinear regression.
The letter codes for DC50 (nM) include: A (<1 nM): B (1-10 nM); C (>10-100 nM); D (>100-1000 nM); E (>1000 nM); and F (not tested). The letter codes for Dmax (%) include: A (>90%); B (>70-90%); C (>50-70%); D (<50%); and E (not tested).

[3] = molecular target: T3, biotinylated truncated STAT6 (123-632)-avi (Homo sapiens, UniProt P42226); test: STAT6 HTRF binding assay; settings: HTRF binding, 0.15 nM biotinylated truncated STAT6 (123-632)-avi, 20 nM fluorescein-labeled probe
T3 construct: biotinylated truncated STAT6 (123-632)-avi purified from E. coli; made in house; host or cells: E. coli
T3 sequence (P42226 123-632 limits assumed): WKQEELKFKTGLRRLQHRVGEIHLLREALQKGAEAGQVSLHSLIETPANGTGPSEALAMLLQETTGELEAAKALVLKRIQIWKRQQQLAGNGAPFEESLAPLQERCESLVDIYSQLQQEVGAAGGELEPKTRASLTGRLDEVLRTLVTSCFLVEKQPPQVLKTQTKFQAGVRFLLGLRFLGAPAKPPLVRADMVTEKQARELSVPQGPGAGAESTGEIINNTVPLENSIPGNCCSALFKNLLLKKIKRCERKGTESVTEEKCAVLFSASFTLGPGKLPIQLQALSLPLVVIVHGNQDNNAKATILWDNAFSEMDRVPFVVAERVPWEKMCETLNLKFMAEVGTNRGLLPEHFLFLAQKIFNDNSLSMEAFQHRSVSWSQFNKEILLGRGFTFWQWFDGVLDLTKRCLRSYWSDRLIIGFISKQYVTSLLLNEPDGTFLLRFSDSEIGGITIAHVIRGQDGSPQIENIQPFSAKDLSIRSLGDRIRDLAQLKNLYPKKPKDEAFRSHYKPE
Protocol: HTRF binding assays were performed using 0.15 nM biotinylated truncated STAT6 (123-632)-avi purified from E. coli, 1× Streptavidin-terbium (CisBio) prepared by mixing SA-Tb in PPI detection buffer (CisBio), 20 nM proprietary fluorescein-labeled probe, and test compounds in assay buffer consisting of 50 mM HEPES-Na pH 7.5, 100 mM NaCl, 1 mM EDTA, 2 mM DTT, 0.1% Tween-20 with a final volume of 20 uL. Compound stocks were dissolved at 10 mM in 100% DMSO and 11 point titration with 3 fold serial dilution was performed in white, opaque 384 well microplates. Reaction plates were incubated at room temperature for 30 minutes. Plates were centrifuged at low rpm for 5 mins, and the ratio of fluorescence intensities were measured at emission wavelengths for fluorescein acceptor (520 nm) and terbium donor (495 nm) on Envision Plate reader. % Inhibition was calculated from the 520/495 ratio generated by using proprietary positive control compound for 100% inhibition and DMSO only reactions for 0% inhibition. Data was processed and dose response curves were generated using GraphPad Prism to determine the concentration required for inhibiting 50% of the HTRF signal (IC50).
The letter codes for IC50 (μM) include: A (<0.1 μM); B (0.1-1 μM); C (>1-10 μM); D (>10-100 μM); E (>100 μM); and F (not tested).

SMILES: CN(C)C(=O)c1cc2c(-c3ccc(C4CCN(c5ccc(C6CCC(=O)NC6=O)cc5F)CC4)cc3)cc(C3=CCCN(C(=O)CCn4ccnn4)C3)c(F)c2[nH]1 (centres unmarked) [Example I-1015, 6-(1-(3-(1H-1,2,3-triazol-1-yl)propanoyl)-1,2,5,6-tetrahydropyridin-3-yl)-4-(4-(1-(4-(2,6-dioxopiperidin-3-yl)-2-fluorophenyl)piperidin-4-yl)phenyl)-7-fluoro-N,N-dimethyl-1H-indole-2-carboxamide]
- DC50 [1]: < 1 nM
- Dmax [1]: 70 to 90%
- DC50 [2]: < 1 nM
- Dmax [2]: > 90%
- IC50 [3]: < 100 nM
